Laboratory results from patent publication US12503454B2, “LPA receptor antagonists and uses thereof” (Gilead Sciences, Inc., priority 2021, dated 2025).

Target: human LPAR1 (Homo sapiens, UniProt Q92633)
Assay: LPAR1 intracellular calcium mobilization assay (antagonist mode, FLIPR)
Format: cell-based
Details: CHO-K1 EDG2 cells expressing human LPAR1; test compound 0.5 nM to 10 μM pre-incubated 60 minutes at 37° C., then LPA 18:2 at EC80 concentration (100 nM)
Description: In vitro LPAR1 activity was measured in an intracellular calcium mobilization assay. CHO-K1 EDG2 cells (DiscoverX cat #93-0644C2) expressing human LPAR1 (NM_001401.3) were seeded in a total volume of 25 μL of Dulbecco's Modification of Eagle's Medium (DMEM) with 10% Fetal Bovine Serum, 1× PenStrepGlutamine, 300 μg/ml Hygromycin, and 800 μg/ml G418 into 384-well tissue culture plate (Grenier #781091) at 15,000 cells/well and incubated at 37° C. overnight. Prior to testing, 25 μL Calcium Loading Dye Component A (FLIPR Calcium 6 Assay Kit Molecular Device # R8190) and 2.5 mM Probenecid (Invitrogen # P36400, prepared fresh) in Hank's Balanced Salt Solution (Corning #21-023-CV), 20 mM HEPES (Corning #25-060-CI), 0.1% Bovine Serum Albumin (Sigma-Aldrich # A7906-500G) was add to the cells for 60 minutes at 37° C.
Agonist dose curves of LPA 18:2 (Avanti Polar Lipids cat #857138, 0.5 nM to 10 μM) were recorded to determine the LPA 18:2 EC80 for subsequent antagonist assays. For agonist dose curves, cells were removed from the incubator 2 hours after dye loading and transferred to the FLIPR Tetra instrument (Molecular Devices, San Jose, CA). Calcium mobilization was monitored for 5 min and 10 μL 6×LPA in HBSS/20 mM Hepes/0.1% bovine serum albumin (BSA) was added to the cells 5 seconds into the assay.
To determine the LPAR1 antagonist activity of test compounds, cells were pre-incubated with test compound at a dose range of 0.5 nM to 10 μM, followed by LPA at EC80 concentration (100 nM). After dye loading, cells were removed from the incubator and 0.3 μL of 200× antagonist was added. Cells were incubated for 60 minutes at 37° C. Antagonist activity was measured on a FLIPR Tetra. Calcium mobilization was monitored for 3.5 minutes and 10 μL 6×EC80 LPA in HBSS, 20 mM HEPES, and 0.1% BSA was added to the cells 5 seconds into the assay. Signal amplitude (Maximum minus minimum) values were plotted against log10 of antagonist concentration using Dose Response Tool (Gilead Sciences Inc.) to determine […].
To assess the antagonistic potential of exemplified compounds […] were determined for Compounds 1 to 66 in the LPAR1 calcium mobilization assay. The compound numbers correspond to the compound numbers in Examples 1 to 18. N/A=not available.

human LPAR1, sequence (Q92633 whole entry): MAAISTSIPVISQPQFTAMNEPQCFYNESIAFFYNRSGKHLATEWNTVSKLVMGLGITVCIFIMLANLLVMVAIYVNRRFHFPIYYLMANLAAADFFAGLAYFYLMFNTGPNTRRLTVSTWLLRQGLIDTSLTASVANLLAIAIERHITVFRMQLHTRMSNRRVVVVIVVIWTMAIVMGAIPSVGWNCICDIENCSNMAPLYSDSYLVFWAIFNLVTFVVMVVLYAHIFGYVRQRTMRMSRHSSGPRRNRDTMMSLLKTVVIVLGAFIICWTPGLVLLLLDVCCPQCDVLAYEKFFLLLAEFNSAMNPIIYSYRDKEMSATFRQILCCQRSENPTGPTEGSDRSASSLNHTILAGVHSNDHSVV

Compound | EC50 [nM]
C[C@@H](OC(=O)Nc1c(-c2ccc(C(=O)Nc3cnnc(Cl)c3)cn2)nnn1C)c1cc(F)cnc1F [Compound 38, (R)-1-(2,5-difluoro-pyridin-3-yl)ethyl (4-(5-((6-chloro-pyridazin-4-yl)-carbamoyl)pyridin-2-yl)-1-methyl-1H-1,2,3-triazol-5-yl)-carbamate] | 24.4
Cc1nnc(-c2ccc(NC(=O)c3ccc(-c4nnn(C)c4NC(=O)O[C@H](C)c4cc(F)cnc4F)nc3)cc2)o1 [Compound 39, (R)-1-(2,5-difluoro-pyridin-3-yl)ethyl (1-methyl-4-(5-((4-(5-methyl-1,3,4-oxadiazol-2-yl)phenyl)-carbamoyl)-pyridin-2-yl)-1H-1,2,3-triazol-5-yl)carbamate] | 9.1
C[C@@H](OC(=O)Nc1c(-c2ccc(C(=O)Nc3ccc(-c4cccnc4)cc3)cn2)nnn1C)c1cc(F)cnc1F [Compound 40, (R)-1-(2,5-difluoro-pyridin-3-yl)ethyl (1-methyl-4-(5-((4-(pyridin-3-yl)phenyl)carbam-oyl)pyridin-2-yl)-1H-1,2,3-triazol-5-yl)carbamate] | 7.6
C[C@@H](OC(=O)Nc1c(-c2ccc(C(=O)Nc3ccc(-c4ccncc4)cc3)cn2)nnn1C)c1cc(F)cnc1F [Compound 41, (R)-1-(2,5-difluoro-pyridin-3-yl)ethyl (1-methyl-4-(5-((4-(pyridin-4-yl)phenyl)carbam-oyl)pyridin-2-yl)-1H-1,2,3-triazol-5-yl)carbamate] | 61
C[C@@H](OC(=O)Nc1c(-c2ccc(C(=O)Nc3cnc(C(F)(F)F)s3)cn2)nnn1C)c1cc(F)cnc1F [Compound 42, (R)-1-(2,5-difluoro-pyridin-3-yl)ethyl (1-methyl-4-(5-((2-(trifluoromethyl)-thiazol-5-yl)-carbamoyl)pyridin-2-yl)-1H-1,2,3-triazol-5-yl)-carbamate] | 10.1
C[C@@H](OC(=O)Nc1c(-c2ccc(C(=O)NC3CC(c4ccccc4)C3)cn2)nnn1C)c1cc(F)cnc1F (stereo partly drawn) [Compound 44, (R)-1-(2,5-difluoro-pyridin-3-yl)ethyl (1-methyl-4-(5-((3-phenylcyclo-butyl)carbamoyl)-pyridin-2-yl)-1H-1,2,3-triazol-5-yl)-carbamate] | 273
C[C@@H](OC(=O)Nc1c(-c2ccc(C(=O)Nc3ccnc(C(F)(F)F)c3)cn2)nnn1C)c1cc(F)cnc1Cl [Compound 45, (R)-1-(2-chloro-5-fluoropyridin-3-yl)ethyl (1-methyl-4-(5-((2-(trifluoromethyl)pyridin-4-yl)carbamoyl)pyridin-2-yl)-1H-1,2,3-triazol-5-yl)carbamate] | < 4.6
C[C@@H](OC(=O)Nc1c(-c2ccc(C(=O)NC34CC(F)(C3)C4)cn2)nnn1C)c1cc(F)cnc1Cl [Compound 46, (R)-1-(2-chloro-5-fluoropyridin-3-yl)ethyl (4-(5-((3-fluorobicyclo-[1.1.1]pentan-1-yl)carbamoyl)-pyridin-2-yl)-1-methyl-1H-1,2,3-triazol-5-yl)-carbamate] | 88.1
C[C@@H](OC(=O)Nc1c(-c2ccc(C(=O)NC34CC(C#N)(C3)C4)cn2)nnn1C)c1cc(F)cnc1Cl [Compound 47, (R)-1-(2-chloro-5-fluoropyridin-3-yl)ethyl (4-(5-((3-cyanobicyclo-[1.1.1]pentan-1-yl)carbamoyl)-pyridin-2-yl)-1-methyl-1H-1,2,3-triazol-5-yl)-carbamate] | < 4.6
C[C@@H](OC(=O)Nc1c(-c2ccc(C(=O)Nc3ccc(C#N)cc3)cn2)nnn1C)c1cc(F)cnc1Cl [Compound 49, (R)-1-(2-chloro-5-fluoropyridin-3-yl)ethyl (4-(5-((4-cyanophenyl)-carbamoyl)pyridin-2-yl)-1-methyl-1H-1,2,3-triazol-5-yl)carbamate] | 74.3
C[C@@H](OC(=O)Nc1c(-c2ccc(C(=O)Nc3ncc(C(F)(F)F)s3)cn2)nnn1C)c1cc(F)cnc1Cl [Compound 53, (R)-1-(2-chloro-5-fluoropyridin-3-yl)ethyl (1-methyl-4-(5-((5-(trifluoro-methyl)thiazol-2-yl)carbamoyl)-pyridin-2-yl)-1H-1,2,3-triazol-5-yl)carbamate] | 19.4
C#CC12CC(NC(=O)c3ccc(-c4nnn(C)c4NC(=O)O[C@H](C)c4cc(F)cnc4Cl)nc3)(C1)C2 [Compound 54, (R)-1-(2-chloro-5-fluoropyridin-3-yl)ethyl (4-(5-((3-ethynylbicyclo-[1.1.1]pentan-1-yl)carbamoyl)-pyridin-2-yl)-1-methyl-1H-1,2,3-triazol-5-yl)-carbamate] | < 4.6
C[C@@H](OC(=O)Nc1c(-c2ccc(C(=O)NC34CC(C(F)(F)F)(C3)C4)cn2)nnn1C)c1cccnc1F [Compound 56, (R)-1-(2-fluoropyridin-3-yl)ethyl (1-methyl-4-(5-((3-(trifluoro-methyl)bicyclo[1.1.1]-pentan-1-yl)carbamoyl)-pyridin-2-yl)-1H-1,2,3-triazol-5-yl)carbamate] | 139
C[C@@H](OC(=O)Nc1c(-c2ccc(C(=O)NC34CC(F)(C3)C4)cn2)nnn1C)c1cccnc1F [Compound 57, (R)-1-(2-fluoropyridin-3-ylethyl (4-(5-((3-fluorobicyclo[1.1.1]-pentan-1-yl)carbamoyl)-pyridin-2-yl)-1-methyl-1H-1,2,3-triazol-5-yl)-carbamate] | 717
Cc1nc(-c2nnn(C)c2NC(=O)O[C@H](C)c2cccnc2Cl)ccc1C(=O)NC12CC(Cl)(C1)C2 [Compound 58, (R)-1-(2-chloropyridin-3-yl)ethyl (4-(5-((3-chlorobicyclo[1.1.1]pentan-1-yl)carbamoyl)-6-methylpyridin-2-yl)-1-methyl-1H-1,2,3-triazol-5-yl)carbamate] | 48.3

The next lines start with the values.

EC50 [nM] | Compound
15.6 | C[C@@H](OC(=O)Nc1c(-c2ccc(C(=O)Nc3ccc(-c4ccccc4)cc3)cn2)nnn1C)c1cc(F)cnc1F [Compound 36, (R)-1-(2,5-difluoro-pyridin-3-yl)ethyl (4-(5-([1,1′-biphen-yl]-4-ylcarbamoyl)-pyridin-2-yl)-1-methyl-1H-1,2,3-triazol-5-yl)-carbamate]
196 | C[C@@H](OC(=O)Nc1c(-c2ccc(C(=O)N[C@@H]3C[C@H]3c3ccccc3)cn2)nnn1C)c1cc(F)cnc1F [Compound 37, (R)-1-(2,5-difluoro-pyridin-3-yl)ethyl (1-methyl-4-(5-(((1R,2S)-2-phenyl-cyclopropyl)carbam-oyl)pyridin-2-yl)-1H-1,2,3-triazol-5-yl)carbamate]
9 | C[C@@H](OC(=O)Nc1c(-c2ccc(C(=O)Nc3cc(Cl)nc(C(F)(F)F)c3)cn2)nnn1C)c1cc(F)cnc1F [Compound 43, (R)-1-(2,5-difluoro-pyridin-3-yl)ethyl (4-(5-((2-chloro-6-(trifluoromethyl)-pyridin-4-yl)-carbamoyl)pyridin-2-yl)-1-methyl-1H-1,2,3-triazol-5-yl)-carbamate]
80.7 | C[C@@H](OC(=O)Nc1c(-c2ccc(C(=O)NC34CC(C(F)F)(C3)C4)cn2)nnn1C)c1cc(F)cnc1Cl [Compound 48, (R)-1-(2-chloro-5-fluoropyridin-3-yl)ethyl (4-(5-((3-(difluoromethyl)-bicyclo[1.1.1]-pentan-1-yl)-carbamoyl)pyridin-2-yl)-1-methyl-1H-1,2,3-triazol-5-yl)carbamate]
8.7 | C[C@@H](OC(=O)Nc1c(-c2ccc(C(=O)Nc3ccnc(C#N)c3)cn2)nnn1C)c1cc(F)cnc1Cl [Compound 50, (R)-1-(2-chloro-5-fluoropyridin-3-yl)ethyl (4-(5-((2-cyanopyridin-4-yl)carbamoyl)-pyridin-2-yl)-1-methyl-1H-1,2,3-triazol-5-yl)-carbamate]
< 4.6 | C[C@@H](OC(=O)Nc1c(-c2ccc(C(=O)Nc3cc(Cl)nc(Cl)c3)cn2)nnn1C)c1cc(F)cnc1Cl [Compound 51, (R)-1-(2-chloro-5-fluoropyridin-3-yl)ethyl (4-(5-((2,6-dichloro-pyridin-4-yl)-carbamoyl)pyridin-2-yl)-1-methyl-1H-1,2,3-triazol-5-yl)carbamate]
281 | C[C@@H](OC(=O)Nc1c(-c2ccc(C(=O)Nc3nc(C(F)(F)F)co3)cn2)nnn1C)c1cc(F)cnc1Cl [Compound 52]
58.1 | C[C@@H](OC(=O)Nc1c(-c2ccc(C(=O)NC34CC(Cl)(C3)C4)cn2)nnn1C)c1cccnc1F [Compound 55, (R)-1-(2-fluoropyridin-3-yl)ethyl (4-(5-((3-chlorobicyclo[1.1.1]pentan-1-yl)carbamoyl)pyridin-2-yl)-1-methyl-1H-1,2,3-triazol-5-yl)carbamate]
